The values that follow come from EPA's ToxValDB 9.5 (doi:10.2903/j.efsa.2008.124r).

One series deals with Anas platyrhynchos. The following applies: acute; oral; unspecified; mortality.
Another series has as its system Apis mellifera. To be noted: acute, mortality.
For a further series, the system named is Bibionidae. To be noted: chronic/long-term; duration: 28 days; development.
The subject of the next series is Canidae. The following applies: chronic; duration: 1 years; oral; Dog Other; organ weight.
In a further series the test system is Daphnia magna. The following applies: chronic/long-term; duration: 21 days; mortality.
Another series concerns Folsomia candida. To be noted: chronic/long-term; duration: 28 days.
For the next series, the system named is Lepomis macrochirus. The following applies: acute; duration: 96 hours; mortality.
The next series concerns Oncorhynchus mykiss. The following applies: chronic/long-term; duration: 21 days; mortality.
The subject of another series is Phasianus sp. To be noted: acute; oral; unspecified; mortality.
Another series concerns Tagia sp. To be noted: acute; duration: 14 days; mortality.

Converted amounts (≈) assume the structure as drawn.

As for `CC(Cc1ccc(C(C)(C)C)cc1)CN1CCCCC1` (stereo unspecified) [Fenpropidin], the LD50 was 1900 mg/kg-day in the series on Anas platyrhynchos; 46 µg/piece in the series on Apis mellifera (dermal); greater than 10 µg/piece in the series with Apis mellifera (oral, unspecified); greater than 1420 mg/kg-day in the series on Colinus virginianus (acute, oral, diet, mortality); 369 mg/kg-day in the series with Phasianus sp.; 1450 mg/kg-day in the series with Rattus norvegicus (acute, mortality). Besides, the NOEC in the series on Bibionidae is 1 mg/L; with Daphnia magna, 0.32 mg/L; in the series with Folsomia candida, 46.5 mg/kg; in the series with Oncorhynchus mykiss, 0.32 mg/L. In addition, the no-observed-adverse-effect level (NOAEL) (commonly the highest tested level that showed no adverse finding) in the series on Canidae stood at 2 mg/kg-day; with Colinus virginianus (reproduction developmental), 14.6 mg/kg-day; in the series with Rattus norvegicus (chronic, duration: 2 years, body weight) it was 2.27 mg/kg-day; with Rattus norvegicus (reproduction developmental), 60.2 mg/kg-day. For the same molecule, the LC50 is 1.9 µg/mL (≈ 6.95 µM) in the series with Lepomis macrochirus and greater than 500 mg/kg in the series with Tagia sp..
